The source of these data is patent US20260365671A1, “HETEROCYCLIC COMPOUND” (Takeda Pharmaceutical Company Limited, priority 2022, published 2026).

The structures appear in SMILES notation.

Assay [1] deals with NF-κB pathway. Nature of the assay: TNF-α assay (THP-1 cells differentiated to macrophages with IFN-γ, NF-κB pathway activated with LPS; ELISA). The class given is cell-based, Human. The following applies: Homo sapiens, THP-1, THP-1 macrophages, compound 30 min, 50 ng/mL LPS 3 hours. The method, boiled down: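 THP-1 cells differentiated with 25 ng/mL IFN-γ for 24 h, then 30 min with compounds in serum-free medium. NF-κB activated with 50 ng/mL LPS, 3 h at 37 °C. Supernatant TNF-α by ELISA; IC50 from four-parameter logistic fit of % inhibition.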

For assay [2], the target named is T1, NLRP3 inflammasome (Homo sapiens, UniProt Q96P20).
T1 construct: IL-1beta HTRF
Nature of the assay: IL-1β TR-FRET assay (THP-1 cells differentiated to macrophages with IFN-γ, LPS primed, ATP activated; HTRF). The class given is cell-based. The conditions noted are these: THP-1 macrophages, 50 ng/mL LPS priming, compound 30 min, 20 mM ATP 2 hours. In outline:
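THP-1 cells differentiated with 25 ng/mL IFN-γ for 24 h, primed with 50 ng/mL LPS in serum-free medium for 24 h, then treated with compounds for 30 min before 20 mM ATP activation for 2 h at 37 °C. Secreted IL-1β quantified by HTRF; IC50 from logistic fit of % inhibition.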
(In general: Time-resolved FRET reads energy transfer from a long-lived donor to a nearby acceptor.)

T1 sequence (Q96P20 whole entry): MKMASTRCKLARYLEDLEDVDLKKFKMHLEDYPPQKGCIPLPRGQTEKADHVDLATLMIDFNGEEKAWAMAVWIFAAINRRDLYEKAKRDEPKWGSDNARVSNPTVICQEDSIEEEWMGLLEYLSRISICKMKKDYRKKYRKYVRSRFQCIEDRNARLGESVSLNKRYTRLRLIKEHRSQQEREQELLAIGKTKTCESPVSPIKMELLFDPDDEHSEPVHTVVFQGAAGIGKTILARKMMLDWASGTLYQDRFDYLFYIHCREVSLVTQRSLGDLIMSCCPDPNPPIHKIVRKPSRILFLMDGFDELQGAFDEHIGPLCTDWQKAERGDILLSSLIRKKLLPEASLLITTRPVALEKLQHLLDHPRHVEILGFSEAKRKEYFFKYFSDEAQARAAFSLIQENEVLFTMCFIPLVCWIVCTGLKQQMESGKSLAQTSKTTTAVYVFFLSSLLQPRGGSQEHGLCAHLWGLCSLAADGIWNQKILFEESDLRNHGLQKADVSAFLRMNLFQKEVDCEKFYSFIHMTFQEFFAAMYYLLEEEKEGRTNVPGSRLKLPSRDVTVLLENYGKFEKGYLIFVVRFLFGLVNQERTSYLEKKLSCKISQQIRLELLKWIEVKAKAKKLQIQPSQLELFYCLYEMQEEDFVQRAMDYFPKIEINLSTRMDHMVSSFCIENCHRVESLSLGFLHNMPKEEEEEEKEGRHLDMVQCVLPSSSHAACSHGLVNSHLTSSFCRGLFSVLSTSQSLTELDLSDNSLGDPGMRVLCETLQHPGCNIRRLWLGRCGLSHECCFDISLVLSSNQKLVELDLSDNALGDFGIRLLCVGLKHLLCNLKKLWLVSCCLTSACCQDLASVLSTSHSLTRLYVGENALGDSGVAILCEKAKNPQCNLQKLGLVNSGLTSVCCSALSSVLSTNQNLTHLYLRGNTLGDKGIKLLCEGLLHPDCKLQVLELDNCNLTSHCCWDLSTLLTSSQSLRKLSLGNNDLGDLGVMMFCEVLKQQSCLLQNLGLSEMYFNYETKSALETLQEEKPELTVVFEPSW

The IC50 is the concentration at which inhibition is half-maximal. Read a high IC50 as lower potency. For the molecule `Cc1cc(C)c(-n2cc3sc(N[C@H]4CCOC4)nc3n2)c(O)c1` [Example 158, 3,5-dimethyl-2-(5-{[(3S)-oxolan-3-yl]amino}-2H-pyrazolo[3,4-d][1,3]thiazol-2-yl)phenol], the concentration for half-maximal inhibition (IC50) is above 30000 nM in assay [1] and 660 nM in assay [2].

In the case of `Cc1cc(C)c(-n2cc3sc(NC4COCC4O)nc3n2)c(O)c1` (stereo not drawn) [Example 159, 4-{[2-(2-hydroxy-4,6-dimethylphenyl)-2H-pyrazolo[3,4-d][1,3]thiazol-5-yl]amino}oxolan-3-ol], the results for the IC50 in assay [1] and in assay [2] were above 30000 nM and 260 nM, respectively.

In the case of `Cc1cc(C)c(-n2cc3sc(N[C@H]4CN(C)CC4(F)F)nc3n2)c(O)c1` [Example 160, 2-(5-{[(3S)-4,4-difluoro-1-methylpyrrolidin-3-yl]amino}-2H-pyrazolo[3,4-d][1,3]thiazol-2-yl)-3,5-dimethylphenol], the IC50 was above 30000 nM in assay [1] and 1300 nM in assay [2].

For the molecule `Cc1cc(C)c(-n2cc3sc(NCC4(O)COC4)nc3n2)c(O)c1` [Example 161, 3-({[2-(2-hydroxy-4,6-dimethylphenyl)-2H-pyrazolo [3,4-d][1,3]thiazol-5-yl]amino}methyl)oxetan-3-ol], the half-inhibitory concentration (IC50) in assay [1] is above 30000 nM; in assay [2] it was 16000 nM.

On to `Cc1cc(C)c(-n2cc3sc(N[C@@H]4CCCC[C@H]4O)nc3n2)c(O)c1` [Example 162, 2-(5-{[(1R,2R)-2-hydroxycyclohexyl]amino}-2H-pyrazolo[3,4-d][1,3]thiazol-2-yl)-3,5-dimethyl-phenol], for which the IC50 is above 30000 nM in assay [1] and 450 nM in assay [2].

Consider `Cc1cc(C)c(-n2cc3sc(NCC(O)C(F)(F)F)nc3n2)c(O)c1` (stereo not drawn) [Example 163, 3,5-dimethyl-2-{5-[(3,3,3-trifluoro-2-hydroxypropyl)amino]-2H-pyrazolo[3,4-d][1,3]thiazol-2-yl}phenol], for which the half-inhibitory concentration (IC50) is above 30000 nM in assay [1] and 670 nM in assay [2].

For `Cc1cc(C)c(-n2cc3sc(NCC(O)c4ccccn4)nc3n2)c(O)c1` (stereo not drawn) [Example 164, 2-(5-{[2-hydroxy-2-(pyridin-2-yl)ethyl]amino}-2H-pyrazolo[3,4-d][1,3]thiazol-2-yl)-3,5-dimethylphenol], the IC50 in assay [1] was above 30000 nM; in assay [2], 1000 nM.

Consider `Cc1cc(C)c(-n2cc3sc(N[C@@H]4COCC[C@H]4O)nc3n2)c(O)c1` [Example 165, 1,5-anhydro-2,4-dideoxy-2-{[2-(2-hydroxy-4,6-dimethylphenyl)-2H-pyrazolo[3,4-d][1,3]thiazol-5-yl]amino}-D-threo-pentitol], for which the concentration for half-maximal inhibition (IC50) in assay [1] is above 30000 nM; in assay [2], 1800 nM.

Turning to `COCC(O)CNc1nc2nn(-c3c(C)cc(C)cc3O)cc2s1` (stereo not drawn) [Example 166, 2-{5-[(2-hydroxy-3-methoxypropyl)amino]-2H-pyrazolo[3,4-d][1,3]thiazol-2-yl}-3,5-dimethylphenol], the values for the IC50 in assay [1] and in assay [2] were above 30000 nM and 760 nM, respectively.

Consider `Cc1cc(C)c(-n2cc3sc(N[C@@H]4CCOC[C@H]4O)nc3n2)c(O)c1` [Example 167, 1,5-anhydro-2,3-dideoxy-3-{[2-(2-hydroxy-4,6-dimethylphenyl)-2H-pyrazolo[3,4-d][1,3]thiazol-5-yl]amino}-D-threo-pentitol], for which the values for the IC50 in assay [1] and in assay [2] were above 30000 nM and 350 nM, respectively.

With `Cc1cc(C)c(-n2cc3sc(NC(CO)CO)nc3n2)c(O)c1` [Example 168, 2-{[2-(2-hydroxy-4,6-dimethylphenyl)-2H-pyrazolo[3,4-d][1,3]thiazol-yl]amino}propane-1,3-diol], the figures for the half-maximal inhibitory concentration (IC50) in assay [1] and in assay [2] were above 30000 nM and 370 nM, respectively.

With `Cc1cc(C)c(-n2cc3sc(NC45CC(O)(C4)C5)nc3n2)c(O)c1` [Example 169, 3-{[2-(2-hydroxy-4,6-dimethylphenyl)-2H-pyrazolo[3,4-d][1,3]thiazol-5-yl]amino} bicyclo[1.1.1]pentan-1-ol], the results for the IC50 in assay [1] and in assay [2] were above 30000 nM and 430 nM, respectively.

Turning to `Cc1cc(C)c(-n2cc3sc(NC4(CF)COC4)nc3n2)c(O)c1` [Example 170, 2-(5-{[3-(fluoromethyl)oxetan-3-yl]amino}-2H-pyrazolo[3,4-d][1,3]thiazol-2-yl)-3,5-dimethylphenol], the figures for the IC50 in assay [1] and in assay [2] were above 30000 nM and 2000 nM, respectively.

As for `Cc1cc(C)c(-n2cc3sc(NCC(O)C(F)F)nc3n2)c(O)c1` (stereo not drawn) [Example 171, 2-{5-[(3,3-difluoro-2-hydroxypropyl)amino]-2H-pyrazolo[3,4-d][1,3]thiazol-2-yl}-3,5-dimethylphenol], the values for the IC50 in assay [1] and in assay [2] were above 10000 nM and 160 nM, respectively.

On to `Cc1cc(C)c(-n2cc3sc(NC[C@@H](C)OC(F)F)nc3n2)c(O)c1` [Example 172, 2-(5-{[(2R)-2-(difluoromethoxy)propyl]amino}-2H-pyrazolo[3,4-d][1,3]thiazol-2-yl)-3,5-dimethylphenol], for which the results for the half-maximal inhibitory concentration (IC50) in assay [1] and in assay [2] were above 10000 nM and 750 nM, respectively.

Take `Cc1cc(C)c(-n2cc3sc(NC45CC(OC(F)F)(C4)C5)nc3n2)c(O)c1` [Example 173, 2-(5-{[3-(difluoromethoxy)bicyclo[1.1.1]pentan-1-yl]amino}-2H-pyrazolo[3,4-d][1,3]thiazol-2-yl)-3,5-dimethylphenol]: the IC50 in assay [1] was above 10000 nM; in assay [2], 3500 nM.

In the case of `COc1cc(C)c(-n2cc3sc(N[C@@H]4C[C@@H](F)CN(C5CC5)C4)nc3n2)c(O)c1` [Example 174, 2-(5-{[(3R,5R)-1-cyclopropyl-5-fluoropiperidin-3-yl]amino}-2H-pyrazolo[3,4-d][1,3]thiazol-2-yl)-5-methoxy-3-methylphenol], the concentration for half-maximal inhibition (IC50) was above 30000 nM in assay [1] and 110 nM in assay [2].

Take `Cc1cc(O)c(-n2cc3sc(N[C@@H]4C[C@@H](F)CN(C)C4)nc3n2)c(CC(F)F)c1` [Example 175, 3-(2,2-difluoroethyl)-2-(5-{[(3R,5R)-5-fluoro-1-methylpiperidin-3-yl]amino}-2H-pyrazolo[3,4-d][1,3]thiazol-2-yl)-5-methylphenol]: the half-inhibitory concentration (IC50) in assay [1] is above 30000 nM; in assay [2], 3.7 nM.

As for `Cc1cc(O)c(-n2cc3sc(N[C@@H]4C[C@@H](F)CN(C)C4)nc3n2)c(COC(F)F)c1` [Example 176, 3-[(difluoromethoxy)methyl]-2-(5-{[(3R,5R)-5-fluoro-1-methylpiperidin-3-yl]amino}-2H-pyrazolo[3,4-d][1,3]thiazol-2-yl)-5-methylphenol], the half-inhibitory concentration (IC50) in assay [1] was above 30000 nM; in assay [2], 22 nM.

Consider `COCc1cc(C)cc(O)c1-n1cc2sc(N[C@@H]3C[C@@H](F)CN(C)C3)nc2n1` [Example 177, 2-(5-{[(3R,5R)-5-fluoro-1-methylpiperidin-3-yl]amino}-2H-pyrazolo[3,4-d][1,3]thiazol-2-yl)-3-(methoxymethyl)-5-methylphenol], for which the IC50 was above 30000 nM in assay [1] and 40 nM in assay [2].

`Cc1cc(C)c(-n2cc3sc(N[C@H]4C[C@@H](F)CN(C)C4)nc3n2)c(O)c1` [Example 178, 2-(5-{[(3S,5R)-5-fluoro-1-methylpiperidin-3-yl]amino}-2H-pyrazolo[3,4-d][1,3]thiazol-2-yl)-3,5-dimethylphenol]: the IC50 in assay [1] is above 30000 nM; in assay [2] it was 8400 nM.

For the molecule `Cc1cc(C)c(-n2cc3sc(N[C@@H]4C[C@H](F)CN(C)C4)nc3n2)c(O)c1` [Example 179, 2-(5-{[(3R,5S)-5-fluoro-1-methylpiperidin-3-yl]amino}-2H-pyrazolo[3,4-d][1,3]thiazol-2-yl)-3,5-dimethylphenol], the IC50 in assay [1] was above 30000 nM; in assay [2], 94 nM.

`Cc1cc(C)c(-n2cc3sc(N[C@H]4C[C@H](F)CN(C)C4)nc3n2)c(O)c1` [Example 180, 2-(5-{[(3S,5S)-5-fluoro-1-methylpiperidin-3-yl]amino}-2H-pyrazolo[3,4-d][1,3]thiazol-2-yl)-3,5-dimethylphenol]: the IC50 was above 30000 nM in assay [1] and 4200 nM in assay [2].

For `CCNc1nc2nn(-c3c(C)cc(C)cc3O)cc2s1` [Example 181, 2-[5-(ethylamino)-2H-pyrazolo[3,4-d][1,3]thiazol-2-yl]-3,5-dimethylphenol], the concentration for half-maximal inhibition (IC50) is above 30000 nM in assay [1] and 340 nM in assay [2].
